43 molecules from patent US9840481B2, “Allosteric modulators of nicotinic acetylcholine receptors” (MERCK SHARP & DOHME CORP., priority 2016, dated 2017) can be followed below.

Read-outs that look alike come from different tables or passages of the source.

In this assay the target is T1, human α7 nAChR stably expressed in a HEK cell line (with human RIC-3) (Homo sapiens, UniProt P36544).
T1 construct: PrecisION hnAChR α7/RIC-3
As to the kind of experiment: Automated patch-clamp electrophysiology functional assay (Assay A), IonFlux HT, whole-cell population patch. The class given is cell-based. The procedure:
The α7 nAChR positive allosteric modulator (PAM) activity of the present compounds may be tested using assays known in the art. The α7 nAChR PAMs described herein have activities in an automated patch-clamp electrophysiology functional assay as described in the examples. The assay was performed using the IonFlux HT in a whole-cell, population patch configuration. See Golden et al. Assay Drug Dev. Technol. (2011) 9:608-619. The compounds were assessed for their ability to modulate the function of the human α7 nAChR stably expressed in a HEK cell line both in the presence, and in the absence of the natural α7 agonist acetylcholine. By performing a series of such measurements at different concentrations, the effective concentration of the α7 nAChR PAMs (EC50) was determined. See Spencer et al. Assay Drug Dev. Technol. (2012) 10:313-324.
Direct activation of α7 (agonism), and potentiation of 5 acetylcholine-evoked α7 currents was determined as follows:
Automated Patch-Clamp Electrophysiology Functional Assay (Assay A)
Automated patch-clamp electrophysiology was performed using the IonFlux HT (Fluxion Biosciences Inc., San Francisco, Calif.) in the whole-cell, population patch configuration. Test compounds were assessed for their ability to modulate the function of the α7 nicotinic acetylcholine receptor both in the presence, and in the absence of the natural α7 agonist acetylcholine. A HEK cell line stably expressing both human RIC-3 and human α7 (PrecisION hnAChR α7/RIC-3, Eurofins Pharma, St. Charles, Mo.) was cultured in 175 cm^2 triple-layer tissue culture flasks to no more than 90% confluency in DMEM/F-12 growth media supplemented with 10% heat-inactivated fetal bovine serum, 1% non-essential amino acids, 0.625 μg/mL Puromycin, and 400 μg/mL Geneticin. Immediately prior to assay, cells were detached by first aspirating growth media, rinsing with Dulbecco's phosphate buffered saline, and then adding 10 mL of Accutase (Innovative Cell Technologies, San Diego, Calif.) to the flask and then incubating at 37° C. for 5 minutes. Detached cells were then recovered by the addition of 40 mL of CHO-serum-free media supplemented with 25 mM HEPES, and rocked gently in a 50 mL conical tube for 20 minutes prior to patch-clamp assay. After recovery, cells were pelleted by centrifugation at 1,000 RPM for 1 minute in a compact bench top centrifuge; recovery media was aspirated and cells were resuspended in external recording solution (150 mM NaCl, 5 mM KCl, 2 mM CaCl2, 1 mM MgCl2, 10 mM HEPES, 12 mM dextrose) to a density of 5.0×10^6 cells/mL. The cell suspension was added to the cell inlet wells on an IonFlux HT population patch plate which had previously been rinsed and primed with deionized H2O. Test compounds were serially diluted in DMSO and then resuspended to the final test concentration in external recording solution, with, or without […] acetylcholine added to the external recording solution; test compounds were then transferred to the IonFlux HT population patch plate. Internal recording solution (110 mM TrisPO4, 28 mM TrisBase, 0.1 mM CaCl2, 2 mM MgCl2, 11 mM EGTA, 4 mM MgATP) was added to the internal recording solution inlet wells on the IonFlux HT patch plate previously loaded with cells and test compounds, and the plate loaded into the IonFlux HT instrument. A protocol was executed on the IonFlux HT to trap the cells, break into the cells, and establish the whole-cell recording configuration; cells were voltage-clamped at a holding potential of −60 mV for the duration of the experiment, all experiments were conducted at room temperature, and the IonFlux HT injection pressure was 8 psi for solution applications. Upon establishing the whole-cell configuration, external recording solution was perfused into the recording chambers for 120 seconds and then 40 μM acetylcholine was applied for 1 second and immediately washed off with external recording solution for 60 seconds. […]
For orientation: The patch-clamp technique gives a direct electrical read-out from membranes.

The mark [1] stands for this setting: automated patch-clamp electrophysiology functional assay (Assay A), potency class by EC50, read-out: α7 nAChR Potency.
[2] abbreviates: electrophysiology EC50, HEK cells expressing human α7/RIC-3, 40 μM acetylcholine, holding potential −60 mV, room temperature, read-out: α7 nAChR EC50.

T1 sequence (P36544 23-502): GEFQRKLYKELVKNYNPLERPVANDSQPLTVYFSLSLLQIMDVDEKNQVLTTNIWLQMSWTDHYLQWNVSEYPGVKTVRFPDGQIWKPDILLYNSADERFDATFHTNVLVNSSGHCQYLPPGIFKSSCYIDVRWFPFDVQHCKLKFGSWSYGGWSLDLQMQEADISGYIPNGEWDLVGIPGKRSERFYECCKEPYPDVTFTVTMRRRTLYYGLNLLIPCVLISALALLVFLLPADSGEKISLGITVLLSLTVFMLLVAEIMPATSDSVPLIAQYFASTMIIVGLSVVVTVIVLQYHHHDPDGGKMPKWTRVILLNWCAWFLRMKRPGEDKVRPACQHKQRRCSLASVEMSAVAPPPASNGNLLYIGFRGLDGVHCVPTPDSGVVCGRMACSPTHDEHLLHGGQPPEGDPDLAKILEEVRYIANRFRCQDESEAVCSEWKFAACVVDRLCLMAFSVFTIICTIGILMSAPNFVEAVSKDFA

As for `Cc1ncoc1-c1nc([C@H]2[C@H](c3ccc(S(N)(=O)=O)cc3)C2(C)C)no1` [Example I7], the EC50 reads like this: under setting [1], 0.5 to 5 µM; under setting [2], 0.71 µM.
Regarding `CC1(C)[C@@H](c2ccc(S(N)(=O)=O)cc2)[C@@H]1c1noc(C2CCN(C3CC3)CC2)n1` [Example I9], the EC50 is 0.5 to 5 µM under setting [1] and 1.8 µM under setting [2].
Turning to `CC1(C)[C@@H](c2ccc(S(N)(=O)=O)cc2)[C@@H]1c1cn(-c2ccccc2)nn1` [Example L7], under setting [1], the EC50 fell in the range of 0.5 to 5 µM.
Take `CC(C)(C)c1coc([C@H]2[C@H](c3ccc(S(N)(=O)=O)cc3)C2(C)C)n1` [Example K7]: the EC50 by setting is: under setting [1], 0.5 to 5 µM; under setting [2], 0.62 µM.
`CC1(C)[C@@H](c2ccc(S(N)(=O)=O)cc2)[C@@H]1c1noc(CC2CCCO2)n1` (some centres unmarked) [Example I15]: the EC50 under setting [1] lay in the range of 0.5 to 5 µM.
`CC1(C)[C@@H](c2ccc(S(N)(=O)=O)cc2)[C@@H]1c1noc(CCC2CC2)n1` [Example I33]: the EC50 under setting [1] lay in the range of 0.5 to 5 µM.
As to `CC1(C)[C@@H](c2ccc(S(N)(=O)=O)cc2)[C@@H]1c1nc(-c2ccc(F)cc2F)co1` [Example K3], the EC50 under setting [1] was 0.1 to 0.5 µM and the EC50 under setting [2] was found to be 0.38 µM.
Turning to `CC1(C)[C@H](c2ccc(S(N)(=O)=O)cc2)[C@H]1c1nc(C2CCc3cc(F)ccc32)no1` (some centres unmarked) [Example B14], the EC50 was 0.5 to 5 µM under setting [1] and 1.2 µM under setting [2].
Regarding `CC(C)Oc1ccc(Cl)cc1-c1noc([C@@H]2[C@@H](c3ccc(S(N)(=O)=O)cc3)C2(C)C)n1` [Example A4], the EC50 was 0.5 to 5 µM under setting [1] and 4.8 µM under setting [2].
As to `Cc1ccccc1-c1noc([C@@H]2C[C@H]2c2ccc(S(N)(=O)=O)cc2)n1` [Example C17], the EC50 under setting [1] is 0.1 to 0.5 µM.
As for `CC(C)c1noc([C@@H]2C[C@H]2c2ccc(S(N)(=O)=O)cc2)n1` [Example D11], the EC50 by setting is: under setting [1], 0.1 to 0.5 µM; under setting [2], 0.43 µM.
As for `NS(=O)(=O)c1ccc([C@H]2C[C@@H]2c2nc(C3CCCCC3)no2)cc1` [Example B4], the EC50 under setting [1] fell in the range of 0.5 to 5 µM.
As for `CC1(C)[C@@H](c2ccc(S(N)(=O)=O)cc2)[C@@H]1c1nc(-c2cncc(C(F)(F)F)c2)no1` [Example D17], the EC50 was 0.5 to 5 µM under setting [1] and 2.3 µM under setting [2].
For the molecule `CC1(C)[C@H](c2ccc(S(N)(=O)=O)cc2)[C@H]1c1nc(-c2ccccc2F)co1` [Example J1], the EC50 was 0.5 to 5 µM under setting [1] and 1.2 µM under setting [2].
Turning to `CC1(C)[C@H](c2ccc(S(N)(=O)=O)cc2)[C@H]1c1nc(C2CC(F)(F)C2)no1` [Example B8], the EC50 under setting [1] was 0.5 to 5 µM.
As for `CC1(C)[C@@H](c2ccc(S(N)(=O)=O)cc2)[C@@H]1c1noc(C(O)C(F)(F)F)n1` (some centres unmarked) [Example I28], the EC50 under setting [1] fell in the range of 0.5 to 5 µM.
`CC1(C)[C@@H](c2ccc(S(N)(=O)=O)cc2)[C@@H]1c1noc(-c2c(F)cccc2F)n1` [Example H8]: the EC50 under setting [1] fell in the range of 0.1 to 0.5 µM and the EC50 under setting [2] came to 0.11 µM.
Take `CC1(C)[C@@H](c2ccc(S(N)(=O)=O)cc2)[C@@H]1c1cnc(-c2ccccc2)o1` [Example L1]: the EC50 under setting [1] was in the range of 0.5 to 5 µM.
On to `CC1(C)[C@H](c2ccc(S(N)(=O)=O)cc2)[C@H]1c1noc(N2CCCCC2)n1` [Example L20], for which the EC50 runs as follows: under setting [1], 0.5 to 5 µM; under setting [2], 1.3 µM.
With `CC1(C)[C@@H](c2ccc(S(N)(=O)=O)cc2)[C@@H]1c1noc(-c2ccc3nc(O)sc3c2)n1` [Example I32], the EC50 under setting [1] lay within 0.1 to 0.5 µM.
For `CC1(C)C(c2ccc(S(N)(=O)=O)cc2)C1c1noc(C2CC3CN(C4CCCC4)C(=O)C3C2)n1` (centres unmarked) [Example I24], the EC50 runs as follows: under setting [1], 0.5 to 5 µM; under setting [2], 4.4 µM.
`NS(=O)(=O)c1ccc([C@@H]2C[C@H]2c2nc(-c3cnccc3C(F)(F)F)no2)cc1` [Example D22]: under setting [1], the EC50 was 0.5 to 5 µM.
`NS(=O)(=O)c1ccc([C@@H]2C[C@H]2c2nc(-c3cccc(Br)c3)no2)cc1` [Example C10]: the EC50 under setting [1] is 0.5 to 5 µM.
On the same count and under the same terms, then `CC1(C)[C@H](c2ccc(S(N)(=O)=O)cc2)[C@H]1c1nc(C2CC3(CCC3)C2)no1` (some centres unmarked) [Example B15], with 0.5 to 5 µM.
For the molecule `CC1(C)[C@@H](c2ccc(S(N)(=O)=O)cc2)[C@@H]1c1noc(-c2ccccc2)n1` [Example H1], the EC50 was 0.1 to 0.5 µM under setting [1] and 0.26 µM under setting [2].
`CC1(C)[C@@H](c2ccc(S(N)(=O)=O)cc2)[C@@H]1c1nnc(-c2cccnc2C2CC2)o1` [Example G12]: the EC50 under setting [1] fell in the range of 0.5 to 5 µM.
Consider `CC1(C)[C@@H](c2ccc(S(N)(=O)=O)cc2)[C@@H]1c1nnc(C2CCCC2)s1` [Example G14], for which the EC50 was 0.5 to 5 µM under setting [1] and 0.92 µM under setting [2].
In the case of `NS(=O)(=O)c1ccc([C@@H]2C[C@H]2c2nc(-c3cccc(F)c3)no2)cc1` [Example 4, 4-((1R,2R)-2-(3-(3-Fluorophenyl)-1,2,4-oxadiazol-5-yl)cyclopropyl)benzenesulfonamide], the EC50 was 0.1 to 0.5 µM under setting [1] and 0.23 µM under setting [2].
For `NS(=O)(=O)c1ccc([C@@H]2C[C@H]2c2nc(-c3cncc(F)c3)no2)cc1` [Example D12], in that order: 0.5 to 5 µM and 0.8 µM.
Taken in the same sequence, the figures for `CC1(C)[C@H](c2ccc(S(N)(=O)=O)cc2)[C@H]1c1cn(-c2cccc(F)c2)nn1` [Example L5] were 0.5 to 5 µM and 0.77 µM.
As to `CC1(C)[C@@H](c2ccc(S(N)(=O)=O)cc2)[C@@H]1c1nc(CC(F)(F)F)no1` [Example D14], under setting [1], the EC50 lay in the range of 0.5 to 5 µM.
Turning to `CC1(C)[C@H](c2ccc(S(N)(=O)=O)cc2)[C@H]1c1nc(-c2cncc(F)c2)no1` [Example B2], under setting [1], the EC50 lay within 0.5 to 5 µM.
On to `CC1(C)[C@@H](c2ccc(S(N)(=O)=O)cc2)[C@@H]1c1noc(Cc2ccc(F)cc2F)n1` [Example I1], for which the EC50 under setting [1] is 0.1 to 0.5 µM.
`NS(=O)(=O)c1ccc([C@H]2C[C@@H]2c2cnc(-c3ccccc3)s2)cc1` [Example L22]: the EC50 under setting [1] lay in the range of 0.5 to 5 µM.
For the molecule `CC1(C)[C@@H](c2ccc(S(N)(=O)=O)cc2)[C@@H]1c1ncc(C2CCCC2)s1` [Example K16], the EC50 under setting [1] was in the range of 0.5 to 5 µM.
`COc1ccc(Cl)cc1-c1noc([C@@H]2[C@@H](c3ccc(S(N)(=O)=O)cc3)C2(C)C)n1` [Example A1]: the EC50 was 0.5 to 5 µM under setting [1] and 2.9 µM under setting [2].
As to `NS(=O)(=O)c1ccc([C@@H]2C[C@H]2c2nc(-c3cc(F)ccc3F)no2)cc1` [Example C16], the EC50 under setting [1] is 0.1 to 0.5 µM and the EC50 under setting [2] was 0.16 µM.
On to `CC1(C)[C@@H](c2ccc(S(N)(=O)=O)cc2)[C@@H]1c1nc(C2CC2)no1` [Example D9], for which the EC50 under setting [1] was 0.1 to 0.5 µM.
Still for that read-out and setting: the result for `CC1(C)[C@@H](c2ccc(S(N)(=O)=O)cc2)[C@@H]1c1nnc(C2CC2)s1` [Example G15] reads 0.5 to 5 µM.
On to `NS(=O)(=O)c1ccc([C@@H]2[C@@H](c3nc(-c4cccc(F)c4)no3)C2(Cl)Cl)cc1` (relative stereo) [Example 36, 4-{trans-2,2-Dichloro-3-[3-(3-fluorophenyl)-1,2,4-oxadiazol-5-yl]cyclopropyl}benzenesulfonamide], for which the EC50 runs as follows: under setting [1], 0.1 to 0.5 µM; under setting [2], 0.47 µM.
For the molecule `NS(=O)(=O)c1ccc([C@@H]2C[C@H]2c2nc(C3CC(F)(F)C3)no2)cc1` [Example D19], the EC50 under setting [1] lay within 0.5 to 5 µM.
In the case of `NS(=O)(=O)c1ccc([C@@H]2C[C@H]2c2nc(C3CCCCC3)no2)cc1` [Example D8], the EC50 under setting [1] was 0.1 to 0.5 µM and the EC50 under setting [2] was 0.19 µM.
With `CC1(C)[C@@H](c2ccc(S(N)(=O)=O)cc2)[C@@H]1c1nc(CC2CC2)no1` [Example D27], the EC50 runs as follows: under setting [1], 0.1 to 0.5 µM; under setting [2], 0.2 µM.
